Measured values: ChEMBL document CHEMBL2074247, “Induction of P-glycoprotein expression by HIV protease inhibitors in cell culture” (AIDS, 2000)

Biological target: ATP-dependent translocase ABCB1 (Homo sapiens, UniProt P08183)
Experiment: TP_TRANSPORTER: Western blot, LS-180V
Format: functional, cell-based

ATP-dependent translocase ABCB1, sequence (P08183 whole entry): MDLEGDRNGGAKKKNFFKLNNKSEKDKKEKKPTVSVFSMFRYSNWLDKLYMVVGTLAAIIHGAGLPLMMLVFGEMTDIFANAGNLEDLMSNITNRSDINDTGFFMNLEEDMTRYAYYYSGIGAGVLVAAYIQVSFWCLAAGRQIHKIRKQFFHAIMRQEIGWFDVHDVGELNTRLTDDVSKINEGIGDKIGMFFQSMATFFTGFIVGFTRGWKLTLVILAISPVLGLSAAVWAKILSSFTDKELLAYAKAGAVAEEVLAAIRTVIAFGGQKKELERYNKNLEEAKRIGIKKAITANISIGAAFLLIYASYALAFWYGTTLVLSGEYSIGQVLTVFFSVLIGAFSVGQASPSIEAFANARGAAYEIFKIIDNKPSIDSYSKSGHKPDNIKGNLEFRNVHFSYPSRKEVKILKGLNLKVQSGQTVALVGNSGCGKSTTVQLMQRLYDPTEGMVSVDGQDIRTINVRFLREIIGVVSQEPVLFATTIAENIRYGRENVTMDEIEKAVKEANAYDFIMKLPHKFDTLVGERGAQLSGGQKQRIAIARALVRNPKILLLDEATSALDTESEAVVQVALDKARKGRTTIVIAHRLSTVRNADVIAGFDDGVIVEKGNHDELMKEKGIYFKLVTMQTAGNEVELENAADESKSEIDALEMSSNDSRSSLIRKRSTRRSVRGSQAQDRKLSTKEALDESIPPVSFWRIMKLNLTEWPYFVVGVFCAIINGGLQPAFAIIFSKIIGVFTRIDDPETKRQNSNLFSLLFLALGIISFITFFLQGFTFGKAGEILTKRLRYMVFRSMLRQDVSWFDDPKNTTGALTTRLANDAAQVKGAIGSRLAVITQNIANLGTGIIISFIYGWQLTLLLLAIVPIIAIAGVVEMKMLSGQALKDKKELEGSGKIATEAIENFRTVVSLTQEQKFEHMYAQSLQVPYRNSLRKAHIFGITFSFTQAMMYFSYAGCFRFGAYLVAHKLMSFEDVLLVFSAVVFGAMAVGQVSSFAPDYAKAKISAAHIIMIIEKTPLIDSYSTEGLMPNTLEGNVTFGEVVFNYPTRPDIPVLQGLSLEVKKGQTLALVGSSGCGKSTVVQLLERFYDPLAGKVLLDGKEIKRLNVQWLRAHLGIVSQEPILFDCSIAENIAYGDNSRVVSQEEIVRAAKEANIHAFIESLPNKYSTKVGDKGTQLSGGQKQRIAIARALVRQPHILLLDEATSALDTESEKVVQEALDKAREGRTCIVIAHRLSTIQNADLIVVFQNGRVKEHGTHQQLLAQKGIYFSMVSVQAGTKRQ

Row | Activity | SMILES
1 | inducer [+] | CC(C)(C)NC(=O)[C@@H]1C[C@@H]2CCCC[C@@H]2CN1C[C@@H](O)[C@H](Cc1ccccc1)NC(=O)[C@H](CC(N)=O)NC(=O)c1ccc2ccccc2n1 [SAQUINAVIR]
2 | inducer [+] | Cc1c(O)cccc1C(=O)N[C@@H](CSc1ccccc1)[C@H](O)CN1C[C@H]2CCCC[C@H]2C[C@H]1C(=O)NC(C)(C)C [NELFINAVIR]
3 | inducer [+] | CC(C)(C)NC(=O)[C@@H]1CN(Cc2cccnc2)CCN1C[C@@H](O)C[C@@H](Cc1ccccc1)C(=O)N[C@H]1c2ccccc2C[C@H]1O.O [INDINAVIR]
4 | inducer [+] | COc1ccc(CCN(C)CCCC(C#N)(c2ccc(OC)c(OC)c2)C(C)C)cc1OC (stereo not given) [VERAPAMIL]
5 | inducer [+] | CC(C)CN(C[C@@H](O)[C@H](Cc1ccccc1)NC(=O)O[C@H]1CCOC1)S(=O)(=O)c1ccc(N)cc1 [AMPRENAVIR]
